pIC50: −log10 of the molar value.
Target: EP4 (Homo sapiens, UniProt P35408)
Test: EP4 Antagonism by CRE-PLAP Reporter Assay (SE302 cells, PGE2-stimulated)
Format: cell-based
Parameters: HEK293 cells express endogenous EP4; endogenous in cells; host or cells: SE302 (HEK293 clone with CRE-PLAP reporter)
Details: SE302 (HEK293) cells, 3 ng/mL PGE2, overnight; single or multiple assay average values
Outline: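 HEK293-derived SE302 cells with endogenous EP4 and CRE-driven secreted PLAP, in serum-free medium with 0.1% BSA, stimulated overnight with 3 ng/mL PGE2 plus compound. Supernatant PLAP read by luminescence (pH 11 carbonate buffer, 2 h). IC50 from % of control, normalized to DMSO with and without PGE2.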

EP4, sequence (P35408 whole entry): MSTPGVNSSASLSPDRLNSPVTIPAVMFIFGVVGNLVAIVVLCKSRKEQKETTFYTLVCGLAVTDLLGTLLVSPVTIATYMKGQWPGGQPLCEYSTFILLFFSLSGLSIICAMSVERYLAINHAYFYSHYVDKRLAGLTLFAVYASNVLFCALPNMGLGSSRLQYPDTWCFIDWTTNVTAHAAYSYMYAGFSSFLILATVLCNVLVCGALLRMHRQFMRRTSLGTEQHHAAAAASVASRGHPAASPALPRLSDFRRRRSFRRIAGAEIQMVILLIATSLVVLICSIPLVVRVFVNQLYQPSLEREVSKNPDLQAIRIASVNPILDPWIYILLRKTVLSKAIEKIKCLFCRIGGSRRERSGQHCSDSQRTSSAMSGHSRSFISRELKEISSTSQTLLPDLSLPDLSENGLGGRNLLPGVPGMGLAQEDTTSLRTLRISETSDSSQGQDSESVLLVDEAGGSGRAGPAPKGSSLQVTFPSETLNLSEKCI

Structure (SMILES) | pIC50
C[C@H](NC(=O)c1c(C(F)(F)F)nn2c1N(Cc1cc(CCCF)cc(C(F)(F)F)c1)CC2)c1ccc(C(=O)O)cc1 [Compound 99, (S)-4-(1-(1-(3-(3-Fluoropropyl)-5-(trifluoromethyl)benzyl)-6-(trifluoromethyl)-2,3-dihydro-1H-imidazo[1,2-b]pyrazole-7-carboxamido)ethyl)benzoic Acid] | 7.94
C[C@H](NC(=O)c1c(C(F)(F)F)nn2c1N(Cc1ccc(C(F)(F)F)cc1)CC2)c1ccc(C2CC2)cc1 [Compound 57, (S)—N-(1-(4-cyclopropylphenyl)ethyl)-6-(trifluoromethyl)-1-(4-(trifluoromethyl)benzyl)-2,3-dihydro-1H-imidazo[1,2-b]pyrazole-7-carboxamide] | 6.51
C[C@H](NC(=O)c1c(C(F)(F)F)nn2c1N(Cc1cccc(C(F)(F)F)c1)CC2)c1ccc(CC(=O)O)cc1 [Compound 26, (S)-2-(4-(1-(6-(trifluoromethyl)-1-(3-(trifluoromethyl)benzyl)-2,3-dihydro-1H-imidazo[1,2-b]pyrazole-7-carboxamido)ethyl)phenyl)acetic Acid] | 8.45
C[C@H](NC(=O)c1c(C(F)(F)F)nn2c1N(Cc1ccc(OC(F)(F)F)cc1)CC2)c1ccc(C(=O)O)cc1 [Compound 10, (S)-4-(1-(1-(4-(trifluoromethoxy)benzyl)-6-(trifluoromethyl)-2,3-dihydro-1H-imidazo[1,2-b]pyrazole-7-carboxamido)ethyl)benzoic Acid] | 7.90
C[C@H](NC(=O)c1c(C(F)(F)CO)nn2c1N(Cc1cccc(C(F)(F)F)c1)CC2)c1ccc(C(=O)O)cc1 [Compound 100, (S)-4-(1-(6-(1,1-Difluoro-2-hydroxyethyl)-1-(3-(trifluoromethyl)benzyl)-2,3-dihydro-1H-imidazo[1,2-b]pyrazole-7-carboxamido)ethyl)benzoic Acid] | 8.05
C[C@H](NC(=O)c1c(C(F)(F)F)nn2c1N(Cc1cc(C(F)(F)F)cc(C(F)(F)F)c1)CC2)c1ccc(C(=O)O)cc1 [Compound 5, (S)-4-(1-(1-(3,5-bis(trifluoromethyl)benzyl)-6-(trifluoromethyl)-2,3-dihydro-1H-imidazo[1,2-b]pyrazole-7-carboxamido)ethyl)benzoic Acid] | 7.34
C[C@H](NC(=O)c1c(C(F)(F)F)nn2c1N(c1ccc(C(F)(F)F)cc1)CC2)c1ccc(C(=O)O)cc1 [Compound 47, (S)-4-(1-(6-(trifluoromethyl)-1-(4-(trifluoromethyl)phenyl)-2,3-dihydro-1H-imidazo[1,2-b]pyrazole-7-carboxamido)ethyl)benzoic Acid] | 7.31
COc1ccc(CN2CCn3nc(C(F)(F)F)c(C(=O)N[C@@H](C)c4ccc(C(=O)O)cc4)c32)cc1 [Compound 8, (S)-4-(1-(1-(4-methoxybenzyl)-6-(trifluoromethyl)-2,3-dihydro-1H-imidazo[1,2-b]pyrazole-7-carboxamido)ethyl)benzoic Acid] | 8.10
C[C@H](NC(=O)c1c(C(F)(F)F)nn2c1N(Cc1ccccc1C(F)(F)F)CCC2)c1ccc(C(=O)O)cc1 [Compound 46, (S)-4-(1-(2-(trifluoromethyl)-4-(2-(trifluoromethyl)benzyl)-4,5,6,7-tetrahydropyrazolo[1,5-a]pyrimidine-3-carboxamido)ethyl)benzoic Acid] | 7.00
C=Cc1nn2c(c1C(=O)N[C@@H](C)c1ccc(C(=O)O)cc1)N(Cc1cccc(C(F)(F)F)c1)CC2 [Compound 92, (S)-4-(1-(1-(3-(Trifluoromethyl)benzyl)-6-vinyl-2,3-dihydro-1H-imidazo[1,2-b]pyrazole-7-carboxamido)ethyl)benzoic Acid] | 8.27
C[C@H](NC(=O)c1c(C(F)(F)F)nn2c1[N+]([O-])(Cc1cccc(I)c1)CC2)c1ccc(C(=O)O)cc1 (stereo partly drawn) [Compound 76, 7-(((S)-1-(4-carboxyphenyl)ethyl)carbamoyl)-1-(3-iodobenzyl)-6-(trifluoromethyl)-2,3-dihydro-1H-imidazo[1,2-b]pyrazole 1-oxide] | 8.39
C[C@H](NC(=O)c1c(CO)nn2c1N(Cc1cccc(C(F)(F)F)c1)CC2)c1ccc(C(=O)O)cc1 [Compound 93, (S)-4-(1-(6-(Hydroxymethyl)-1-(3-(trifluoromethyl)benzyl)-2,3-dihydro-1H-imidazo[1,2-b]pyrazole-7-carboxamido)ethyl)benzoic Acid] | 8.18
C[C@H](NC(=O)c1c(C(F)(F)F)nn2c1N(Cc1cccc(Cl)c1)CCC2)c1ccc(C(=O)O)cc1 [Compound 42, (S)-4-(1-(4-(3-chlorobenzyl)-2-(trifluoromethyl)-4,5,6,7-tetrahydropyrazolo[1,5-a]pyrimidine-3-carboxamido)ethyl)benzoic Acid] | 7.87
C[C@H](NC(=O)c1c(C(F)(F)F)nn2c1N(Cc1ccccc1Cl)CC2)c1ccc(C(=O)O)cc1 [Compound 43, (S)-4-(1-(1-(2-chlorobenzyl)-6-(trifluoromethyl)-2,3-dihydro-1H-imidazo[1,2-b]pyrazole-7-carboxamido)ethyl)benzoic Acid] | 8.38

Molecules with a higher pIC50, results first:

pIC50 | Structure (SMILES)
8.66 | O=C(O)c1ccc(C2(NC(=O)c3c(C(F)(F)F)nn4c3N(Cc3ccc(C(F)(F)F)cc3)CC4)CC2)cc1 [Compound 29, 4-(1-(6-(trifluoromethyl)-1-(4-(trifluoromethyl)benzyl)-2,3-dihydro-1H-imidazo[1,2-b]pyrazole-7-carboxamido)cyclopropyl)benzoic Acid]
8.80 | C[C@H](NC(=O)c1c(C(F)(F)F)nn2c1N(Cc1cccc(N(C)C)c1)CC2)c1ccc(C(=O)O)cc1 [Compound 89, (S)-4-(1-(1-(3-(dimethylamino)benzyl)-6-(trifluoromethyl)-2,3-dihydro-1H-imidazo[1,2-b]pyrazole-7-carboxamido)ethyl)benzoic Acid]
8.85 | C[C@H](NC(=O)c1c(C(F)(F)F)nn2c1N(Cc1ccccc1F)CC2)c1ccc(C(=O)O)cc1 [Compound 16, (S)-4-(1-(1-(2-fluorobenzyl)-6-(trifluoromethyl)-2,3-dihydro-1H-imidazo[1,2-b]pyrazole-7-carboxamido)ethyl)benzoic Acid]
8.94 | C[C@H](NC(=O)c1c(C(F)(F)F)nn2c1N(Cc1ccc(C(F)(F)F)cc1)CCC2)c1ccc(C(=O)O)cc1 [Compound 45, (S)-4-(1-(2-(trifluoromethyl)-4-(4-(trifluoromethyl)benzyl)-4,5,6,7-tetrahydropyrazolo[1,5-a]pyrimidine-3-carboxamido)ethyl)benzoic Acid]
8.96 | Cc1cn(Cc2cccc(C(F)(F)F)c2)c2c(C(=O)N[C@@H](C)c3ccc(C(=O)O)cc3)c(C(F)(F)F)nn12 [Compound 82, (S)-4-(1-(3-methyl-6-(trifluoromethyl)-1-(3-(trifluoromethyl)benzyl)-1H-imidazo[1,2-b]pyrazole-7-carboxamido)ethyl)benzoic acid]
9.09 | C[C@H](NC(=O)c1c(C(F)(F)F)nn2c1N(Cc1cccc(CO)c1)CC2)c1ccc(C(=O)O)cc1 [Compound 64, (S)-4-(1-(1-(3-(hydroxymethyl)benzyl)-6-(trifluoromethyl)-2,3-dihydro-1H-imidazo[1,2-b]pyrazole-7-carboxamido)ethyl)benzoic acid]
9.15 | C[C@H](NC(=O)c1c(C(F)(F)F)nn2c1N(Cc1cccc(I)c1)CC2)c1ccc(C(=O)O)cc1 [Compound 69, (S)-4-(1-(1-(3-iodobenzyl)-6-(trifluoromethyl)-2,3-dihydro-1H-imidazo[1,2-b]pyrazole-7-carboxamido)ethyl)benzoic acid]
9.24 | C[C@H](NC(=O)c1c(C(F)(F)F)nn2c1N(Cc1ccc(F)cc1)CC2)c1ccc(C(=O)O)cc1 [Compound 14, (S)-4-(1-(1-(4-fluorobenzyl)-6-(trifluoromethyl)-2,3-dihydro-1H-imidazo[1,2-b]pyrazole-7-carboxamido)ethyl)benzoic Acid]
9.24 | CSc1cc(CN2CCn3nc(C(F)(F)F)c(C(=O)N[C@@H](C)c4ccc(C(=O)O)cc4)c32)cc(C(F)(F)F)c1 [Compound 62, (S)-4-(1-(1-(3-(methylthio)-5-(trifluoromethyl)benzyl)-6-(trifluoromethyl)-2,3-dihydro-1H-imidazo[1,2-b]pyrazole-7-carboxamido)ethyl)benzoic Acid]
9.51 | C[C@H](NC(=O)c1c(C(F)(F)F)nn2c1N(Cc1cccc(C(F)(F)F)c1)CC2)c1ccc(-c2nn[nH]n2)cc1 [Compound 36, (S)—N-(1-(4-(2H-tetrazol-5-yl)phenyl)ethyl)-6-(trifluoromethyl)-1-(3-(trifluoromethyl)benzyl)-2,3-dihydro-1H-imidazo[1,2-b]pyrazole-7-carboxamide]
